Experimental data reported in ChEMBL document CHEMBL1955839, “Synthesis and structure-activity relationship of 4-amino-2-phenylpyrimidine derivatives as a series of novel GPR119 agonists” (Bioorg Med Chem, 2012).

Experiments:
[1] = biological target: T1, Glucose-dependent insulinotropic receptor (Homo sapiens) (UniProt Q8TDV5); test: Agonist activity at human GPR119 expressed in HEK293 cells co-transfected with pCRE-Luc assessed as induction in cAMP level after 6 hrs by luciferase reporter gene assay relative to 10 uM of 2-{[2-(4-Bromophenyl)-6-methylpyrimidin-4-yl]amino}ethanol; format: functional, cell-based
T1 sequence (whole entry): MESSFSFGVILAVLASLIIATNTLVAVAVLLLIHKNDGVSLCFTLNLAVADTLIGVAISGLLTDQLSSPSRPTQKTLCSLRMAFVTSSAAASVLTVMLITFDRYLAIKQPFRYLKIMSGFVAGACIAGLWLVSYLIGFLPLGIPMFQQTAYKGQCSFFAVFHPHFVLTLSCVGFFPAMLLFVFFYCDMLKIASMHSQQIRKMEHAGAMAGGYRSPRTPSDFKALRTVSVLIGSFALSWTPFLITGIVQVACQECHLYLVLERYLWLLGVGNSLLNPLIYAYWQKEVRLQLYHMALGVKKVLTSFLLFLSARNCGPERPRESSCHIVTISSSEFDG

[2] = biological target: T1, Glucose-dependent insulinotropic receptor (Homo sapiens); test: Agonist activity at human GPR119 expressed in HEK293 cells co-transfected with pCRE-Luc assessed as induction in cAMP level at 10 uM after 6 hrs by luciferase reporter gene assay relative to 10 uM of 2-{[2-(4-Bromophenyl)-6-methylpyrimidin-4-yl]amino}ethanol; format: functional, cell-based
Cytochrome P450 1A2 = biological target: T2, Cytochrome P450 1A2 (Homo sapiens, UniProt P05177); test: Inhibition of CYP1A2; format: ADME
T2 sequence (P05177 whole entry): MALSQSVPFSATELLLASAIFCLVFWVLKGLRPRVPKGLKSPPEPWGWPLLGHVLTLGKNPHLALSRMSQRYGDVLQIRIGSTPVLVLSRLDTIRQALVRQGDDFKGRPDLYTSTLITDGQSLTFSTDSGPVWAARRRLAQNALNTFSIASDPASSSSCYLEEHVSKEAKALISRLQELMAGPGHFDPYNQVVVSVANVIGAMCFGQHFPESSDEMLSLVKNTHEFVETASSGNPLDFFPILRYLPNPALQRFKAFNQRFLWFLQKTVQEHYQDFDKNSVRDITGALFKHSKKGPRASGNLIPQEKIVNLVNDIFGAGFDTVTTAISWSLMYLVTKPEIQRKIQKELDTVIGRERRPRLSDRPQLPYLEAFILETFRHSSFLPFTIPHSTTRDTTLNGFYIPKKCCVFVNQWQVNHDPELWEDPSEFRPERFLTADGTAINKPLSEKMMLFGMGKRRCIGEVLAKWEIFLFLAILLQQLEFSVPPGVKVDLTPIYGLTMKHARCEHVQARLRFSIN

[3] = Half life in rat at 1 mg/kg, iv; format: ADME, organism-based; parameters: dose 1 mg/kg, route intravenous; conditions: in vivo
[4] = Oral bioavailability in rat at 3 mg/kg; format: ADME, organism-based; conditions: in vivo
[5] = Total clearance in rat at 1 mg/kg, iv; format: ADME, organism-based; parameters: dose 1 mg/kg, route intravenous; conditions: in vivo
[6] = Volume of distribution at steady state in rat at 1 mg/kg, iv; format: ADME, organism-based; parameters: dose 1 mg/kg, route intravenous; conditions: in vivo, read-out: Vdss
Mus musculus [7] = test: Antihyperglycemic activity in ICR mouse assessed as blood glucose lowering ratio at 10 mg/kg, po administered 10 mins prior glucose challenge measured after 30 mins by oral glucose tolerance test; format: functional
[8] = Tmax in rat at 3 mg/kg, po; format: ADME, organism-based; parameters: dose 3 mg/kg, route oral; conditions: in vivo
Mus musculus [9] = test: Antihyperglycemic activity in ICR mouse assessed as blood glucose lowering ratio at 30 mg/kg, po administered 10 mins prior glucose challenge measured after 30 mins by oral glucose tolerance test; format: functional

SMILES | EC [1] | Intrinsic activity [2] | IC50 (Cytochrome P450 1A2) | Activity (Mus musculus [7]) | also measured
Cc1cc(NCCO)nc(-c2ccc(I)cc2)n1 | 19 µM | 66% | – | – | –
CCc1cc(NCCO)nc(-c2ccc(Br)cc2)n1 | 5.9 µM | 146% | – | – | –
Cc1cc(NCCc2ccc[n+]([O-])c2)nc(-c2ccc(Br)cc2)n1 | – | – | 0.97 µM | 38% | half-life [3]: 72 min; bioavailability [4]: 56%; clearance [5]: 20.1 mL/min/kg; Vd [6]: 2 L/kg; Tmax [8]: 15 min
Cc1cc(NC(C)CO)nc(-c2ccc(Br)cc2)n1 (stereo unspecified) | 13 µM | 82% | – | – | –
Cc1cc(NCCO)nc(-c2ccc(Br)cc2)n1 | – | – | 0.66 µM | – | Activity (Mus musculus [9]): 17%
COCCNc1cc(C)nc(-c2ccc(Br)cc2)n1 | 1.8 µM | 209% | < 0.091 µM | 13% | –
Cc1cc(NCC(C)C)nc(-c2ccc(Br)cc2)n1 | 0.91 µM | 322% | < 0.091 µM | 24% | –
Cc1cc(NCCc2cccnc2)nc(-c2ccc(Br)cc2)n1 | 0.73 µM | 772% | < 0.091 µM | 17% | –
Cc1cc(NCCO)nc(-c2ccc(Cl)cc2)n1 | 12 µM | 48% | – | – | –
OCCNc1cc(C(F)F)nc(-c2ccc(Br)cc2)n1 | 8.2 µM | 195% | – | – | –
Cc1cc(NCC(C)O)nc(-c2ccc(Br)cc2)n1 (stereo unspecified) | 3.6 µM | 209% | – | – | –
Cc1cc(NCc2cccnc2)nc(-c2ccc(Br)cc2)n1 | 1.3 µM | 294% | < 0.046 µM | – | –
